Data as given in publication PMC1664607 (PLoS Medicine, 2006).
≈ marks a conversion by molar mass, not a printed value. Where two headings read alike, the source gives them in different places.

What was measured:
E. coli WP2 uvr A = assay: Bacterial reverse mutation (BRM) test; assay type: cell-based
Procedure: (§1) The BRM test was performed in accordance with OECD Guideline 471 using Salmonella tyiphimurium TA98, TA100, TA1535, and TA1537, and Escherichia coli WP2 uvrA [11]. Each bacterial strain was pre-cultured at 37 °C for 18 h using a nutrient broth (Nissui Pharmaceutical; http://www.nissui-pharm.co.jp/index_e.html). After adjustment to 2.4 at OD660 nm, each bacterial suspension was added to a test tube containing the designated compound in the absence or presence of rat liver microsome (S9) mix. After a 20-min incubation at 37 °C, top agar was added to each test tube and the contents were poured into minimum essential medium (Oriental Yeast; http://www.oyc.co.jp/e/index.htm). The number of revertants was counted 48 h after incubation at 37 °C.

S. typhimurium TA100 = assay: Bacterial reverse mutation (BRM) test; assay type: cell-based
Procedure: as §1

S. typhimurium TA1535 = assay: Bacterial reverse mutation (BRM) test; assay type: cell-based
Procedure: as §1

S. typhimurium TA1537 = assay: Bacterial reverse mutation (BRM) test; assay type: cell-based; settings: S9 mix +; positive control 2AA 2 μg/plate
Procedure: as §1

S. typhimurium TA98 = assay: Bacterial reverse mutation (BRM) test; assay type: cell-based
Procedure: as §1

[1] = test system: M. tuberculosis ATCC 25618 (H37Rv); assay: Susceptibility testing (agar dilution MIC); assay type: cell-based; settings: Mycobacterium tuberculosis, 336 h
[2] = test system: M. tuberculosis ATCC 35838 (H37Rv-R-R); assay: microbe, parasite or virus in culture; assay type: cell-based; settings: Mycobacterium tuberculosis, 336 h
[3] = test system: M. tuberculosis ATCC 35822 (H37Rv-H-R); assay: microbe, parasite or virus in culture; assay type: cell-based; settings: Mycobacterium tuberculosis, 336 h
[4] = test system: M. tuberculosis ATCC 35837 (H37Rv-E-R); assay: microbe, parasite or virus in culture; assay type: cell-based; settings: Mycobacterium tuberculosis, 336 h
[5] = test system: M. tuberculosis ATCC 35820 (H37Rv-S-R); assay: microbe, parasite or virus in culture; assay type: cell-based; settings: Mycobacterium tuberculosis, 336 h
[6] = test system: M. tuberculosis ATCC 35812 (Kurono); assay: Susceptibility testing (agar dilution MIC); assay type: cell-based; settings: Mycobacterium tuberculosis, ATCC35812, 336 h
[7] = test system: clinically isolated M. tuberculosis; assay: microbe, parasite or virus in culture; assay type: cell-based; settings: Mycobacterium tuberculosis; read-out: MIC90
M. tuberculosis Kurono = assay: Therapeutic efficacy in an experimental mouse model of chronic TB; assay type: in vivo, ICR mice; settings: for Dose that could produce a CFU reduction of at least 95%: lung
[8] = mouse, in vivo, po
[9] = Plasma levels in an experimental mouse model of TB; settings: in vivo, po
CYP2C8/9 = assay: Tolubutamide methylhydroxylation in human liver microsomes; assay type: in vitro ADME; settings: 100 μM; 400 μM tolbutamide
[10] = test system: intracellular M. tuberculosis H37Rv in THP-1 cells; assay: Activity against intracellular mycobacteria, 4-h pulsed exposure; assay type: cell-based, M. tuberculosis; human THP-1 cells; settings: further 68-h culture
CYP1A1/2 = assay: 7-Ethoxyresorufin O-deethylation in human liver microsomes; assay type: in vitro ADME; settings: 100 μM; 0.5 μM 7-ethoxyresorufin
[11] = S9 mix −, positive control AF-2 0.01 μg/plate
[12] = 7H11 agar, 37 °C, 14 d, read-out: MIC

Nc1ccc2cc3ccccc3cc2c1 [2AA, 2-aminoanthracene]
Revertants/Plate (E. coli WP2 uvr A; S9 mix +, positive control 2AA 10 μg/plate): 33 1122 Revertants/Plate
Revertants/Plate (S. typhimurium TA100; S9 mix +, positive control 2AA 1 μg/plate): 108 1103 Revertants/Plate
Revertants/Plate (S. typhimurium TA1535; S9 mix +, positive control 2AA 2 μg/plate): 6 188 Revertants/Plate
Revertants/Plate (S. typhimurium TA1537): 81 238 Revertants/Plate
Revertants/Plate (S. typhimurium TA98; S9 mix +, positive control 2AA 0.5 μg/plate): 36 92 Revertants/Plate

[N-]=[N+]=[N-].[Na+] [NaN3, sodium azide]
Revertants/Plate (S. typhimurium TA1535; S9 mix −, positive control NaN3 0.5 μg/plate): 6 174 Revertants/Plate

NC(=O)C(=Cc1ccc([N+](=O)[O-])o1)c1ccco1 [AF-2, 2-(2-furyl)-3-(5-nitro-2-furyl)acrylamide]
Revertants/Plate (E. coli WP2 uvr A; [11]): 30 225 Revertants/Plate
Revertants/Plate (S. typhimurium TA100; [11]): 98 547 Revertants/Plate
Revertants/Plate (S. typhimurium TA98; S9 mix −, positive control AF-2 0.1 μg/plate): 29 473 Revertants/Plate

CO[C@H]1/C=C/O[C@@]2(C)Oc3c(C)c(O)c4c(O)c(c(/C=N/N5CCN(C)CC5)c(O)c4c3C2=O)NC(=O)/C(C)=C\C=C\[C@H](C)[C@H](O)[C@@H](C)[C@@H](O)[C@@H](C)[C@H](OC(C)=O)[C@@H]1C [RFP, rifampicin]
MIC [1, 12]: 0.78 µg/mL (≈ 0.948 µM)
MIC [2]: > 100 µg/mL
MIC [3]: 0.39 µg/mL (≈ 0.474 µM)
MIC [4]: 0.2 µg/mL (≈ 0.243 µM)
MIC [5]: 0.78 µg/mL (≈ 0.948 µM)
MIC [6, 12]: 0.39 µg/mL (≈ 0.474 µM)
MIC90 [7]: 0.288 µg/mL (≈ 0.35 µM)
Log of Viable Counts/Lung (M. tuberculosis Kurono; 1.25 mg/kg once daily for 28 d (4 weeks), mean ± S.D., n = 5): 7.409 ± 0.201^c:NS, d:NS
Log of Viable Counts/Lung (M. tuberculosis Kurono; 10 mg/kg once daily for 28 d (4 weeks), mean ± S.D., n = 5): 3.972 ± 0.596^c:**, d:**
Log of Viable Counts/Lung (M. tuberculosis Kurono; 20 mg/kg once daily for 28 d (4 weeks), mean ± S.D., n = 5): 3.279 ± 0.330^c:**, d:**
Dose that could produce a CFU reduction of at least 95% (M. tuberculosis Kurono; once daily for 28 d): 3.5 mg/kg
Concentration, 0.5 h [8]: 3330 ± 870 ng/mL
Concentration, 1 h [8]: 4490 ± 1040 ng/mL
Concentration, 2 h [8]: 4520 ± 1900 ng/mL
Concentration, 4 h [8]: 3820 ± 700 ng/mL
Concentration, 6 h [8]: 5100 ± 1630 ng/mL
Concentration, 16 h [8]: 660 ± 260 ng/mL
AUC(0-t) ([9]; 5 mg/kg): 48.2 µg·h/mL
Cmax ([9]; 5 mg/kg): 5100 ng/mL
Tmax ([9]; 5 mg/kg): 6 h

O=c1c(O)c(-c2ccc(O)c(O)c2)oc2cc(O)cc(O)c12 [Quercetin, quercetin]
Percent of Control (CYP2C8/9): 30.6% of Control

O=[N+]([O-])c1cn2c(n1)OC[C@@H](OCc1ccc(OC(F)(F)F)cc1)C2 [PA-824]
MIC [1]: 0.2 µg/mL (≈ 0.557 µM)
MIC [2]: 0.1 µg/mL (≈ 0.278 µM)
MIC [3]: 0.05 µg/mL (≈ 0.139 µM)
MIC [4]: 0.2 µg/mL (≈ 0.557 µM)
MIC [5]: 0.2 µg/mL (≈ 0.557 µM)
MIC [6]: 0.2 µg/mL (≈ 0.557 µM)
Activity against intracellular M. tuberculosis H37Rv [10]: poor activity
Log of Viable Counts/Lung (M. tuberculosis Kurono; 1.25 mg/kg, 672 h): 6.905 ± 0.382^c:NS, d:NS
Log of Viable Counts/Lung (M. tuberculosis Kurono; 2.5 mg/kg, 672 h): 6.567 ± 0.108^c:NS, d:NS
Log of Viable Counts/Lung (M. tuberculosis Kurono; 5 mg/kg, 672 h): 6.329 ± 0.303^c:NS, d:NS
Log of Viable Counts/Lung (M. tuberculosis Kurono; 10 mg/kg, 672 h): 6.244 ± 0.728^c:NS, d:NS
Log of Viable Counts/Lung (M. tuberculosis Kurono; 20 mg/kg, 672 h): 4.688 ± 0.944^c:**, d:**
Log of Viable Counts/Lung (M. tuberculosis Kurono; 40 mg/kg, 672 h): 5.145 ± 0.444^c:**, d:**

O=c1cc(-c2ccccc2)oc2c1ccc1ccccc12 [7,8-Benzoflavone, 7,8-benzoflavone]
Percent of Control (CYP1A1/2): 3.8% of Control

NC(=O)c1cnccn1 [PZA, pyrazinamide]
Log of Viable Counts/Lung (M. tuberculosis Kurono; 40 mg/kg, 672 h): 6.942 ± 0.205^a:NS, b:NS
Log of Viable Counts/Lung (M. tuberculosis Kurono; 80 mg/kg, 672 h): 6.168 ± 0.774^a:*, b:NS
Log of Viable Counts/Lung (M. tuberculosis Kurono; 160 mg/kg, 672 h): 5.823 ± 0.628^a:**, b:*
Log of Viable Counts/Lung (M. tuberculosis Kurono; 320 mg/kg, 672 h): 5.009 ± 0.539^a:**, b:**
Dose that could produce a CFU reduction of at least 95% (M. tuberculosis Kurono; once daily for 28 d): 160 mg/kg
Dose groups that showed a significant decrease in pulmonary viable bacterial count when compared with the vehicle control group (M. tuberculosis Kurono; once daily for 28 d): 80, 160, and 320 mg/kg
AUC(0-t) [9]: 197 µg·h/mL
concentration at 0.083 h [9]: 49600 ± 11200 ng/mL
concentration at 0.25 h [9]: 59100 ± 14100 ng/mL
concentration at 0.5 h [9]: 63200 ± 28900 ng/mL
concentration at 1 h [9]: 60200 ± 18700 ng/mL
concentration at 2 h [9]: 35500 ± 6450 ng/mL
concentration at 4 h [9]: 18400 ± 3090 ng/mL
AUC(0-t) ([9]; 100 mg/kg): 198 µg·h/mL
Cmax ([9]; 100 mg/kg): 63200 ng/mL
Tmax ([9]; 100 mg/kg): 0.5 h
half-life ([9]; 100 mg/kg): 1.1 h
